Measurements taken from US20210380548A1, “Fused [1,2,4]Thiadiazine Derivatives Which Act as KAT Inhibitors of the MYST Family” (CTxT Pty Limited, priority 2017, published 2021).

Legend:
[1] = biological target: T1, TIP60-KAT5 (Homo sapiens, UniProt Q92993); experiment: Revised Acetyltransferase Biochemical Assay, KAT5; settings: 10 nM KAT5, 1 μM AcCoA, 100 nM histone H4, 90 min
T1 construct: encoding amino acid residues 2 to 461 (Uniprot Q92993-2) of human KAT5 isoform; made in house; host or cells: E. coli BL21 DE3

[2] = biological target: T2, MOZ-KAT6A (Homo sapiens, UniProt Q92794, A567V); experiment: Acetyltransferase biochemical assay (AlphaScreen), KAT6A; settings: Table 2 (MOZ-KAT6A); 10 μM Acetyl coenzyme A, histone H3.1, 5 nM enzyme
T2 construct: encoding amino acid residues 507 to 778 (Uniprot Q92794-1) of human KAT6A; made in house; host or cells: E. coli BL21 DE3

[3] = biological target: T2, MOZ-KAT6A; experiment: Revised Acetyltransferase Biochemical Assay, KAT6A; settings: Table 8 (MOZ-KAT6A), 1 μM Acetyl coenzyme A
[4] = biological target: T1, TIP60-KAT5; experiment: Acetyltransferase biochemical assay (AlphaScreen), KAT5; settings: Table 1 (TIP60-KAT5); 0.4 μM Acetyl coenzyme A, histone H4, 10 nM enzyme
[5] = biological target: T3, HBO-KAT7 (Homo sapiens, UniProt O95251); experiment: Acetyltransferase biochemical assay (AlphaScreen), KAT7; settings: Table 3 (HBO-KAT7); 0.4 μM Acetyl coenzyme A, histone H3.1, 40 nM enzyme
T3 construct: encoding amino acid residues 325 to 611 (Uniprot 095251-1) of human KAT7; made in house; host or cells: E. coli BL21 DE3 RIL

[6] = biological target: T3, HBO-KAT7; experiment: Revised Acetyltransferase Biochemical Assay, KAT7; settings: Table 9 (HBO-KAT7), 1 μM Acetyl coenzyme A

T2 sequence (Q92794 507-778 A567V limits assumed): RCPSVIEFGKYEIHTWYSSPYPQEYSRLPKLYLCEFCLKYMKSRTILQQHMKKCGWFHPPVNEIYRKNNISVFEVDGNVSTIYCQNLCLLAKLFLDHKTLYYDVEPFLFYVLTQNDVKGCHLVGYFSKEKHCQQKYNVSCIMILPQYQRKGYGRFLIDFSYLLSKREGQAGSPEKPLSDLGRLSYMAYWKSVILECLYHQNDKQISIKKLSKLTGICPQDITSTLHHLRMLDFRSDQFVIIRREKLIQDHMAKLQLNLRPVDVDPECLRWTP
T3 sequence (O95251 with tags, fused parts or gaps): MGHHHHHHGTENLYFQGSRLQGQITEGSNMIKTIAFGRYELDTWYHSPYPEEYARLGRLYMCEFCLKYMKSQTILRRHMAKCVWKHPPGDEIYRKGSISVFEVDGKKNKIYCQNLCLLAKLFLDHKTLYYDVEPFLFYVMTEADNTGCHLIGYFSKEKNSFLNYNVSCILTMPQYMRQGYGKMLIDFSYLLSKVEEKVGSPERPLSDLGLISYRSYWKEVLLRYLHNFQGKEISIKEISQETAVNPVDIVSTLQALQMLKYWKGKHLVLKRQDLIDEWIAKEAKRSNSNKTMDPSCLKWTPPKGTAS
T1 sequence (Q92993 2-461 isoform Q92993-2): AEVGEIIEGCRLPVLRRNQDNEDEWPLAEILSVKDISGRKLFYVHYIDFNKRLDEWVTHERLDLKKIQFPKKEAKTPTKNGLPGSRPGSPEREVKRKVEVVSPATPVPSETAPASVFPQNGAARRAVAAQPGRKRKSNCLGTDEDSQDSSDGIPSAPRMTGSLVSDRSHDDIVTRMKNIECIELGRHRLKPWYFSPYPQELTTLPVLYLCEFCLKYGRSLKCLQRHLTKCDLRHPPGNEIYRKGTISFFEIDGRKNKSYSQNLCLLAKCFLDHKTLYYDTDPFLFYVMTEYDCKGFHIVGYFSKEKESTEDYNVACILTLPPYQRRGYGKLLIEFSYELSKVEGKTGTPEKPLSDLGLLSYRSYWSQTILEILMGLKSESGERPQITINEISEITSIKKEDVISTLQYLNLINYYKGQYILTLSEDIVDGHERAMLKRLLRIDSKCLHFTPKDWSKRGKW

Compound	IC50 [1] [µM]	IC50 [2] [µM]	IC50 [3] [µM]	IC50 [4] [µM]	IC50 [5] [µM]	IC50 [6] [µM]
CNC(=O)C(CNC(=O)C1=Nc2ccccc2S(=O)(=O)N1)c1ccccc1 (stereo not drawn) [Example 45, N-(3-(methylamino)-3-oxo-2-phenylpropyl)-2H-benzo[e][1,2,4]thiadiazine-3-carboxamide 1,1-dioxide]	–	35.2	–	109	–	–
CCOC(=O)NC(CNC(=O)C1=Nc2ccccc2S(=O)(=O)N1)c1ccccc1 (stereo not drawn) [Example 49, Ethyl (2-(1,1-dioxido-2H-benzo[e][1,2,4]thiadiazine-3-carboxamido)-1-phenylethyl)carbamate]	> 125	7.67	1.68	> 125	–	3.13
O=C(NCC(c1ccccc1)n1ccnn1)C1=Nc2ccccc2S(=O)(=O)N1 (stereo not drawn) [Example 52, N-(2-phenyl-2-(1H-1,2,3-triazol-1-yl)ethyl)-2H-benzo[e][1,2,4]thiadiazine-3-carboxamide 1,1-dioxide]	–	36.1	–	–	–	–
O=C(NCCc1cccc(F)c1)C1=Nc2ccccc2S(=O)(=O)N1 [Example 61]	–	> 125	–	> 125	–	–
COc1cccc(CCNC(=O)C2=Nc3ccccc3S(=O)(=O)N2)c1 [Example 62]	–	> 125	–	> 125	–	–
O=C(NCCc1ccccc1F)C1=Nc2ccccc2S(=O)(=O)N1 [Example 63]	–	> 125	–	> 125	–	–
COc1ccccc1CCNC(=O)C1=Nc2ccccc2S(=O)(=O)N1 [Example 64]	–	102	–	92.1	–	–
O=C(NCCc1ccc(F)cc1)C1=Nc2ccccc2S(=O)(=O)N1 [Example 66]	–	> 125	–	> 125	–	–
Cc1ccc(CCNC(=O)C2=Nc3ccccc3S(=O)(=O)N2)cc1 [Example 67]	–	> 125	–	> 125	–	–
O=C(NCCc1ccc(Cl)cc1)C1=Nc2ccccc2S(=O)(=O)N1 [Example 69]	–	> 125	–	> 125	–	–
O=C(NCCc1cccnc1)C1=Nc2ccccc2S(=O)(=O)N1 [Example 70]	–	> 125	–	> 125	–	–
COC(CNC(=O)C1=Nc2ccccc2S(=O)(=O)N1)c1ccccc1 (stereo not drawn) [Example 74]	–	67.5	–	> 125	–	–
O=C(NCC(O)c1ccccc1)C1=Nc2ccccc2S(=O)(=O)N1 (stereo not drawn) [Example 76]	–	> 125	–	> 125	–	–
O=C(NCC(O)c1cccc(C(F)(F)F)c1)C1=Nc2ccc(I)cc2S(=O)(=O)N1 (stereo not drawn) [Example 128]	–	–	–	> 125	> 125	–
CCNC(=O)C(CNC(=O)C1=Nc2ccccc2S(=O)(=O)N1)c1ccccc1 (stereo not drawn) [Example 131]	–	62.3	–	> 125	–	–
O=C(NCC(C(=O)N1CCCCC1)c1ccccc1)C1=Nc2ccccc2S(=O)(=O)N1 (stereo not drawn) [Example 133]	–	> 125	–	> 125	–	–
O=C(NCC(C(=O)O)c1ccccc1)C1=Nc2ccccc2S(=O)(=O)N1 (stereo not drawn) [Example 154, 3-(1,1-Dioxido-2H-benzo[e][1,2,4]thiadiazine-3-carboxamido)-2-phenylpropanoic Acid]	–	> 125	–	> 125	–	–

More lines, in order of falling IC50 [4], values ahead:

IC50 [1] [µM]	IC50 [2] [µM]	IC50 [3] [µM]	IC50 [4] [µM]	IC50 [5] [µM]	IC50 [6] [µM]	Compound
–	35.5	–	87	–	–	O=C(NCC(Oc1ccccc1)c1ccccc1)C1=Nc2ccccc2S(=O)(=O)N1 (stereo not drawn) [Example 77]
–	53.9	–	85.4	–	–	O=C(NCCc1ccccc1C(F)(F)F)C1=Nc2ccccc2S(=O)(=O)N1 [Example 65]
–	0.0906	–	79.7	–	–	O=C(NCC(c1ccccc1)c1ncco1)C1=Nc2ccc(-c3cnn(CCO)c3)cc2S(=O)(=O)N1 (stereo not drawn) [Example 10, 7-(1-(2-Hydroxyethyl)-1H-pyrazol-4-yl)-N-(2-(oxazol-2-yl)-2-phenylethyl)-2H-benzo[e][1,2,4]thiadiazine-3-carboxamide 1,1-dioxide]
–	1.98	–	72.4	–	–	O=C(NCC(c1ccccc1)c1ccccc1)C1=Nc2ccc(-c3ccn[nH]3)cc2S(=O)(=O)N1 [Example 22, N-(2,2-diphenylethyl)-7-(1H-pyrazol-5-yl)-2H-benzo[e][1,2,4]thiadiazine-3-carboxamide 1,1-dioxide]
–	4.42	–	63.5	15.7	–	O=C(NCCc1ccccc1Br)C1=Nc2ccccc2S(=O)(=O)N1 [Example 28, N-(2-Bromophenethyl)-2H-benzo[e][1,2,4]thiadiazine-3-carboxamide 1,1-dioxide]
–	–	–	61.2	34.7	–	O=C(NCC(O)c1ccc(F)cc1)C1=Nc2ccc(I)cc2S(=O)(=O)N1 (stereo not drawn) [Example 127]
–	47.5	–	52.8	–	–	O=C(NCC(c1ccccc1)c1ncc[nH]1)C1=Nc2ccccc2S(=O)(=O)N1 (single isomer, unassigned) [Example 152]
–	3.33	–	51	–	–	O=C(NCC(c1ccccc1)c1ccccc1)C1=Nc2ccc(C3CC3)cc2S(=O)(=O)N1 [Example 17, 7-Cyclopropyl-N-(2,2-diphenylethyl)-2H-benzo[e][1,2,4]thiadiazine-3-carboxamide 1,1-dioxide]
–	5.39	–	45.7	–	–	O=C(NCC(c1ccccc1)c1ncco1)C1=Nc2ccc(O)cc2S(=O)(=O)N1 (single isomer, unassigned) [Example 148]
–	0.771	–	44	–	–	O=C(NCC(c1ccccc1)c1ccccc1)C1=Nc2ccc(-c3cccnc3)cc2S(=O)(=O)N1 [Example 37, N-(2,2-diphenylethyl)-7-(pyridin-3-yl)-2H-benzo[e][1,2,4]thiadiazine-3-carboxamide 1,1-dioxide]
–	4.82	–	25.3	–	–	O=C(NCC(OC(=O)N1CCC1)c1ccccc1)C1=Nc2ccccc2S(=O)(=O)N1 (stereo not drawn) [Example 51, 2-(1,1-dioxido-2H-benzo[e][1,2,4]thiadiazine-3-carboxamido)-1-phenylethyl azetidine-1-carboxylate]
–	1.37	–	23.8	–	–	Cc1ccc2c(c1)S(=O)(=O)NC(C(=O)NCC(c1ccccc1)c1ccccc1)=N2 [Example 16, N-(2,2-Diphenylethyl)-7-methyl-2H-benzo[e][1,2,4]thiadiazine-3-carboxamide 1,1-dioxide]
–	0.273	–	19.8	–	–	Cc1coc(C(CNC(=O)C2=Nc3ccccc3S(=O)(=O)N2)c2ccccc2)n1 (stereo not drawn) [Example 53, N-(2-(4-methyloxazol-2-yl)-2-phenylethyl)-2H-benzo[e][1,2,4]thiadiazine-3-carboxamide 1,1-dioxide]
7.46	3.73	0.649	18.9	–	–	O=C(NCC(c1ccccc1)c1ncco1)C1=Nc2ccc(F)cc2S(=O)(=O)N1 (single isomer, unassigned) [Example 145]
–	0.0421	–	12.4	20.1	–	CNC(=O)Cn1cc(-c2ccc3c(c2)S(=O)(=O)NC(C(=O)NCC(c2ccccc2)c2ncco2)=N3)cn1 (stereo not drawn) [Example 9, 7-(1-(2-(Methylamino)-2-oxoethyl)-1H-pyrazol-4-yl)-N-(2-(oxazol-2-yl)-2-phenylethyl)-2H-benzo[e][1,2,4]thiadiazine-3-carboxamide 1,1-dioxide]
–	1.81	–	11.8	2.53	–	Nc1ccc2c(c1)S(=O)(=O)NC(C(=O)NCC(c1ccccc1)c1ncco1)=N2 (stereo not drawn) [Example 11, 7-Amino-N-(2-(oxazol-2-yl)-2-phenylethyl)-2H-benzo[e][1,2,4]thiadiazine-3-carboxamide 1,1-dioxide]
–	2.61	–	7.38	–	–	N#Cc1ccccc1CCNC(=O)C1=Nc2ccc(Br)cc2S(=O)(=O)N1 [Example 83]
–	8.1	–	5.97	–	–	O=C(NCC(c1ccccc1)c1cc2ccccc2[nH]1)C1=Nc2ccc(Br)cc2S(=O)(=O)N1 (stereo not drawn) [Example 85]
6.65	1.61	0.552	4.9	–	4.6	O=C(NCCc1ccccc1F)C1=Nc2ccc(Br)cc2S(=O)(=O)N1 [Example 81]
–	0.102	–	4.88	–	–	O=C(NCC(c1ccccc1)c1ncco1)C1=Nc2ccc(O)cc2S(=O)(=O)N1 (single isomer, unassigned) [Example 149]
1.73	0.056	0.12	3.73	–	2.88	COC(=O)c1ccc2c(c1)S(=O)(=O)NC(C(=O)NCC(c1ccccc1)c1ncco1)=N2 (stereo not drawn) [Example 23, Methyl 3-((2-(oxazol-2-yl)-2-phenylethyl)carbamoyl)-2H-benzo[e][1,2,4]thiadiazine-7-carboxylate 1,1-dioxide]
5.55	0.211	0.682	1.4	–	0.874	O=C(NCC(c1ccccc1)c1ccccc1)C1=Nc2ccc(Br)cc2S(=O)(=O)N1 [Example 15, 7-Bromo-N-(2,2-diphenylethyl)-2H-benzo[e][1,2,4]thiadiazine-3-carboxamide 1,1-dioxide]
–	0.0195	–	1.29	–	–	NC(=O)c1ccc2c(c1)S(=O)(=O)NC(C(=O)NCC(c1ccccc1)c1ncco1)=N2 (stereo not drawn) [Example 27, N^3-(2-(Oxazol-2-yl)-2-phenylethyl)-2H-benzo[e][1,2,4]thiadiazine-3,7-dicarboxamide 1,1-dioxide]
